Reference: publication PMC10303384, “The Effect of Terbinafine and Its Ionic Salts on Certain Fungal Plant Pathogens” (Molecules, 2023)
Read-outs that look alike come from different tables or passages of the source.

Tests used:
[1] = system: Rhizoctonia solani (R. solani); assay: microbe, parasite or virus in culture; format: cell-based
[2] = system: B. cinerea on cherry tomatoes; assay: In vivo antifungal bioassay on cherry tomatoes; parameters: species or system Botrytis cinerea; conditions: 20 mg/L; for Diameter of infection (cm) 4 days: 4 days after treatment; for Diameter of infection (cm) 7 days: 7 days after treatment
[3] = Solubility classification in representative solvents (Vogel protocol); format: physicochemical; conditions: thermodynamic from solid, 25 °C, test amount 0.1 g
Procedure: This investigation details how to determine the solubility of terbinafine and its salts, guided by the experimental protocol in Vogel’s Textbook of Practical Organic Chemistry. Based on the Snyder polarity index values of the representative solvents, each solvent was tested for its ability to dissolve the target analytes. The solubility data was classified into three categories based on the observed extent of dissolution. […] The experimental procedures were performed at 25 °C and under ambient pressure.

[4] = system: Botrytis cinerea (B. cinerea); assay: In vitro fungicidal activity, mycelial (hyphae) growth inhibition on PDA; format: cell-based
[5] = system: Valsa malicola (V. mali); assay: as above; format: cell-based
[6] = Solubility of saturated solutions by HPLC at 25 °C; format: physicochemical
Description: The filtrate was then passed through a 0.22 μm nylon membrane filter and subjected to HPLC analysis. Based on Wang’s report about the chromatographic parameters, modifications to the mobile phase ratio were made. The replicability of the results was ensured by performing each measurement in triplicate.

[7] = Surface tension of saturated aqueous solutions, Du Noüy ring method; conditions: 25 °C
Procedure: This method involved adjusting the stage positioning of the solvent container such that a platinum ring could be immersed below the liquid interface or pulled through the meniscus. […] The maximum force was recorded as the surface tension of the solvent. To ensure accuracy, the platinum ring was thoroughly cleaned between each measurement through rinsing with double-distilled water and wiping it dry. The surface tension determination was performed in quadruplicate.

[8] = system: Alternaria solani (A. solani); assay: In vitro fungicidal activity, mycelial (hyphae) growth inhibition on PDA; format: cell-based
[9] = system: Pythium aphanidermatum (P. aphanidermatum); assay: as above; format: cell-based
[10] = system: Fusarium graminearum (F. graminearum); assay: microbe, parasite or virus in culture; format: cell-based; conditions: for Inhibition Rate at 50 mg/L (%) F. g: mean ± SD of three replicates
[11] = system: Pyricularia oryzae (P. oryzae); assay: microbe, parasite or virus in culture; format: cell-based; conditions: for Inhibition Rate at 50 mg/L (%) P. o: mean ± SD of three replicates; for EC50: P. oryzae
[12] = system: Phomopsis capsici (P. capsica); assay: In vitro fungicidal activity, mycelial (hyphae) growth inhibition on PDA; format: cell-based
[13] = Critical micelle concentration by electrical conductivity; conditions: 25 °C
Procedure: The critical micelle concentrations (CMCs) of the TISs were measured using electrical conductivity at 25 °C, as shown in Figure S16.
The critical micelle concentrations (CMCs) of all the TISs were determined using an electrical conductivity meter (Leica Desktop Conductivity Meter DDSJ-308F, Shanghai Oustor Industrial Co., Ltd. Shanghai, China).

[14] = DMSO, organic solvent or mixture, Snyder polarity index 6.5, read-out: Solubility in DMSO
[15] = acetone, organic solvent or mixture, Snyder polarity index 5.1, read-out: Solubility in Acetone
[16] = acetonitrile, organic solvent or mixture, Snyder polarity index 6.2, read-out: Solubility in Acetonitrile
[17] = chloroform, organic solvent or mixture, Snyder polarity index 4.1, read-out: Solubility in Chloroform
[18] = ethyl acetate, organic solvent or mixture, Snyder polarity index 4.3, read-out: Solubility in Ethyl acetate
[19] = isopropanol, organic solvent or mixture, read-out: Solubility in Isopropanol
[20] = methanol, organic solvent or mixture, Snyder polarity index 6.6, read-out: Solubility in Methanol
[21] = n-hexane, organic solvent or mixture, Snyder polarity index 0.0, read-out: Solubility in n-Hexane
[22] = toluene, organic solvent or mixture, Snyder polarity index 2.3, read-out: Solubility in Toluene
[23] = water, Snyder polarity index 9.0, read-out: Solubility in Water
[24] = acetone, organic solvent or mixture, thermodynamic from solid, Table S1, read-out: Solubility, Acetone
[25] = acetonitrile, organic solvent or mixture, thermodynamic from solid, Table S1, read-out: Solubility, Acetonitrile
[26] = ethyl acetate, organic solvent or mixture, thermodynamic from solid, Table S1, read-out: Solubility, Ethyl acetate
[27] = isopropanol, organic solvent or mixture, thermodynamic from solid, Table S1, read-out: Solubility, Isopropanol
[28] = n-hexane, organic solvent or mixture, thermodynamic from solid, Table S1, read-out: Solubility, n-Hexane
[29] = toluene, organic solvent or mixture, thermodynamic from solid, Table S1, read-out: Solubility, Toluene
[30] = water, thermodynamic from solid, Table S1, read-out: Solubility, Water
[31] = Fusarium graminearum, F. graminearum
[32] = read-out: EC50 (μmol/L), F. graminearum

## CN(C/C=C/C#CC(C)(C)C)Cc1cccc2ccccc12.O=C(O)/C=C\C(=O)O [TIS 3, (E)-N,6,6-trimethyl-N-(naphthalen-1-ylmethyl)hept-2-en-4-yn-1-aminium (Z)-3-carboxyacrylate]
[1]
  better activity than terbinafine: 24%
  Inhibition Rate at 50 mg/L (%) R. s: 83.4 ± 0.35%
[1]; Rhizoctonia solani
  EC50: 1.84 µg/mL
[1]; read-out: EC50 (μmol/L)
  EC50: 4.51 µmol/L
[2]
  Diameter of infection (cm) 4 days: 0.82 cm
  Diameter of infection (cm) 7 days: 1.02 cm
[3]; [14]
  solubility: > 100 mg/mL
[3]; [15]
  solubility: < 33.3 mg/mL
[3]; [16]
  solubility: < 33.3 mg/mL
[3]; [17]
  solubility: > 100 mg/mL
[3]; [18]
  solubility: < 33.3 mg/mL
[3]; [19]
  solubility: < 33.3 mg/mL
[3]; [20]
  solubility: > 100 mg/mL
[3]; [21]
  solubility: < 33.3 mg/mL
[3]; [22]
  solubility: < 33.3 mg/mL
[3]; [23]
  solubility: < 33.3 mg/mL
[4]
  Inhibition Rate at 50 mg/L (%) B. c: 100 ± 0%
[4]; Botrytis cinerea
  EC50: 0.13 µg/mL
[5]
  EC50: 2.03 µg/mL
  Inhibition Rate at 50 mg/L (%) V. m: 100 ± 0%
[5]; read-out: EC50 (μmol/L)
  EC50: 4.98 µmol/L
[6]; [24]
  solubility at 15 min: 3.76 µM
[6]; [25]
  solubility at 15 min: 1490 µM
[6]; [26]
  solubility at 15 min: 485 µM
[6]; [27]
  solubility at 15 min: 3.06 µM
[6]; [28]
  solubility at 15 min: 0.234 µM
[6]; [29]
  solubility at 15 min: 42.1 µM
[6]; [30]
  solubility at 15 min: 616 µM
[7]
  surface tension of the saturated aqueous solution: 61.48 mN·m^−1
[8]
  Inhibition Rate at 50 mg/L (%) A. s: 100 ± 0%
[8]; Alternaria solani
  EC50: 0.15 µg/mL
[8]; read-out: EC50 (μmol/L)
  EC50: 0.36 µmol/L
[9]
  Inhibition Rate at 50 mg/L (%) P. a: 69.54 ± 0%
[10]
  Inhibition Rate at 50 mg/L (%) F. g: 100 ± 0%
[10]; [31]
  EC50: 0.1 µg/mL
[10]; [32]
  EC50: 0.24 µmol/L
[11]
  Inhibition Rate at 50 mg/L (%) P. o: 99.29 ± 0%
[11]; Pyricularia oryzae
  EC50: 0.58 µg/mL
[11]; read-out: EC50 (μmol/L)
  EC50: 1.41 µmol/L
[12]
  Inhibition Rate at 50 mg/L (%) P. c: 33.16 ± 2.52%

## CN(C/C=C/C#CC(C)(C)C)Cc1cccc2ccccc12.O=C(O)c1ccccc1O [TIS 1, (E)-N,6,6-trimethyl-N-(naphthalen-1-ylmethyl)hept-2-en-4-yn-1-aminium 2-hydroxybenzoate]
[1]
  Inhibition Rate at 50 mg/L (%) R. s: 84.79 ± 1.25%
[1]; Rhizoctonia solani
  EC50: 2.49 µg/mL
[1]; read-out: EC50 (μmol/L)
  EC50: 5.81 µmol/L
[2]
  Diameter of infection (cm) 4 days: 0.78 cm
  Diameter of infection (cm) 7 days: 1.10 cm
[3]; [14]
  solubility: > 100 mg/mL
[3]; [15]
  solubility: > 100 mg/mL
[3]; [16]
  solubility: > 100 mg/mL
[3]; [17]
  solubility: > 100 mg/mL
[3]; [18]
  solubility: > 100 mg/mL
[3]; [19]
  solubility: < 33.3 mg/mL
[3]; [20]
  solubility: > 100 mg/mL
[3]; [21]
  solubility: < 33.3 mg/mL
[3]; [22]
  solubility: > 100 mg/mL
[3]; [23]
  solubility: < 33.3 mg/mL
[4]
  Inhibition Rate at 50 mg/L (%) B. c: 100 ± 0%
[4]; Botrytis cinerea
  EC50: 0.14 µg/mL
[4]; read-out: EC50 (μmol/L)
  EC50: 0.32 µmol/L
[5]
  EC50: 2.24 µg/mL
  Inhibition Rate at 50 mg/L (%) V. m: 100 ± 0%
[5]; read-out: EC50 (μmol/L)
  EC50: 5.21 µmol/L
[6]; [27]
  solubility at 15 min: 5.18 µM
[6]; [28]
  solubility at 15 min: 0.502 µM
[6]; [30]
  solubility at 15 min: 284 µM
[7]
  surface tension of the saturated aqueous solution: 58.33 mN·m^−1
[8]
  Inhibition Rate at 50 mg/L (%) A. s: 100 ± 0%
[8]; Alternaria solani
  EC50: 0.13 µg/mL
[8]; read-out: EC50 (μmol/L)
  EC50: 0.3 µmol/L
[9]; Pythium aphanidermatum, 50 mg/L, read-out: Inhibition Rate at 50 mg/L (%) P. a
  inhibition at 50 µg/mL: 74.61 ± 0.38%
[10]
  Inhibition Rate at 50 mg/L (%) F. g: 100 ± 0%
[10]; [31]
  EC50: 0.1 µg/mL
[10]; [32]
  EC50: 0.23 µmol/L
[11]
  Inhibition Rate at 50 mg/L (%) P. o: 99.05 ± 0.21%
[11]; Pyricularia oryzae
  EC50: 0.47 µg/mL
[11]; read-out: EC50 (μmol/L)
  EC50: 1.1 µmol/L
[12]; Diaporthe capsici, 50 mg/L, read-out: Inhibition Rate at 50 mg/L (%) P. c
  inhibition at 50 µg/mL: 47 ± 1.18%

## CN(C/C=C/C#CC(C)(C)C)Cc1cccc2ccccc12.O=C(O)/C=C/C(=O)O [TIS 4, (E)-N,6,6-trimethyl-N-(naphthalen-1-ylmethyl)hept-2-en-4-yn-1-aminium (E)-3-carboxyacrylate]
[1]
  Inhibition Rate at 50 mg/L (%) R. s: 85.82 ± 1.51%
[1]; Rhizoctonia solani
  EC50: 2.3 µg/mL
[1]; read-out: EC50 (μmol/L)
  EC50: 5.65 µmol/L
[13]
  critical micelle concentration (CMC): 0.31 mmol/L
[3]; [14]
  solubility: > 100 mg/mL
[3]; [15]
  solubility: < 33.3 mg/mL
[3]; [16]
  solubility: < 33.3 mg/mL
[3]; [17]
  solubility: < 33.3 mg/mL
[3]; [18]
  solubility: < 33.3 mg/mL
[3]; [19]
  solubility: < 33.3 mg/mL
[3]; [20]
  solubility: < 33.3 mg/mL
[3]; [21]
  solubility: < 33.3 mg/mL
[3]; [22]
  solubility: < 33.3 mg/mL
[3]; [23]
  solubility: < 33.3 mg/mL
[4]
  Inhibition Rate at 50 mg/L (%) B. c: 100 ± 0%
[4]; Botrytis cinerea
  EC50: 0.15 µg/mL
[4]; read-out: EC50 (μmol/L)
  EC50: 0.36 µmol/L
[5]
  EC50: 1.88 µg/mL
  Inhibition Rate at 50 mg/L (%) V. m: 100 ± 0%
[5]; read-out: EC50 (μmol/L)
  EC50: 4.6 µmol/L
[6]; [24]
  solubility at 15 min: 2070 µM
[6]; [25]
  solubility at 15 min: 301 µM
[6]; chloroform, organic solvent or mixture, thermodynamic from solid, Table S1, read-out: Solubility, Chloroform
  solubility at 15 min: 321 µM
[6]; [26]
  solubility at 15 min: 880 µM
[6]; [27]
  solubility at 15 min: 1920 µM
[6]; methanol, organic solvent or mixture, thermodynamic from solid, Table S1, read-out: Solubility, Methanol
  solubility at 15 min: 7750 µM
[6]; [28]
  solubility at 15 min: 70.9 µM
[6]; [29]
  solubility at 15 min: 0.261 µM
[6]; water, read-out: water solubility
  solubility at 15 min: 1920 µM
[6]; [30]
  solubility at 15 min: 1920 µM
[7]
  surface tension of the saturated aqueous solution: 55.68 mN·m^−1
[8]
  Inhibition Rate at 50 mg/L (%) A. s: 100 ± 0%
[8]; Alternaria solani
  EC50: 0.11 µg/mL
[8]; read-out: EC50 (μmol/L)
  EC50: 0.28 µmol/L
[9]
  Inhibition Rate at 50 mg/L (%) P. a: 65.23 ± 0.47%
[10]
  Inhibition Rate at 50 mg/L (%) F. g: 100 ± 0%
[10]; F. graminearum, from EC50
  higher bioactivity compared to terbinafine: 16%
[10]; [31]
  EC50: 0.09 µg/mL
[10]; [32]
  EC50: 0.21 µmol/L
[11]
  Inhibition Rate at 50 mg/L (%) P. o: 98.7 ± 0.54%
[11]; Pyricularia oryzae
  EC50: 0.75 µg/mL
[11]; read-out: EC50 (μmol/L)
  EC50: 1.84 µmol/L
[12]
  Inhibition Rate at 50 mg/L (%) P. c: 47.64 ± 1.58%
